{
  "source": "ChEMBL document CHEMBL3046674",
  "about": "“A new fatty alcohol from Terminalia arjuna leaves with antileishmanial activity” (Med Chem Res, 2013)",
  "data": [
    {"system": "Leishmania donovani", "assay": "Antileishmanial activity against promastigote form of Leishmania donovani after 48 hrs by Alamar Blue assay", "assay_type": "functional, organism-based", "units": {"IC50": "µg/mL", "IC90": "µg/mL"}, "values": [
      {"smiles": "C/C(=C\\CO)CC(C)CC(C)CCCCCCCCC(C)C", "note": "(configuration not stated)", "IC50": 9, "IC90": 30},
      {"smiles": "N=C(N)c1ccc(OCCCCCOc2ccc(C(=N)N)cc2)cc1", "note": "[PENTAMIDINE]", "IC90": 2.03},
      {"smiles": "C[C@@H]1[C@H](O)[C@@H](C)/C=C/C=C/C=C/C=C/C=C/C=C/C=C/[C@H](O[C@@H]2O[C@H](C)[C@@H](O)[C@H](N)[C@@H]2O)C[C@@H]2O[C@](O)(C[C@@H](O)C[C@@H](O)[C@H](O)CC[C@@H](O)C[C@@H](O)CC(=O)O[C@H]1C)C[C@H](O)[C@H]2C(=O)O", "note": "[AMPHOTERICIN B]", "IC50": 0.47, "IC90": 0.65},
      {"smiles": "CC(=O)OC/C=C(\\C)CC(C)CC(C)CCCCCCCCC(C)C", "note": "(configuration not stated)", "IC50": 2, "IC90": 6}
    ]}
  ]
}
